The experiment concerns the target T1, human ERG potassium channel (hERG) (Homo sapiens, UniProt Q12809).
T1 construct: expressed in transfected cells; host or cells: HEK293, stably transfected, tetracycline-inducible promoter
Kind of experiment: hERG channel tail current recording using in vitro Rapid ICE (automated patch-clamp, QPatch HTX). In kind it is cell-based. The procedure, abridged:
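Automated patch clamp on tetracycline-induced HEK293 hERG cells; pulse −80 to −50 mV 200 ms, +20 mV 4.8 s, −50 mV 5 s tail, extracellular pH 7.4. Compound at 0.3, 3, 30 μM (0.3% DMSO), 5 min exposure; tail current versus vehicle gives % inhibition and estimated IC50.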
Background: Block of hERG is tested as a sign of cardiac risk.

T1 sequence (Q12809 whole entry): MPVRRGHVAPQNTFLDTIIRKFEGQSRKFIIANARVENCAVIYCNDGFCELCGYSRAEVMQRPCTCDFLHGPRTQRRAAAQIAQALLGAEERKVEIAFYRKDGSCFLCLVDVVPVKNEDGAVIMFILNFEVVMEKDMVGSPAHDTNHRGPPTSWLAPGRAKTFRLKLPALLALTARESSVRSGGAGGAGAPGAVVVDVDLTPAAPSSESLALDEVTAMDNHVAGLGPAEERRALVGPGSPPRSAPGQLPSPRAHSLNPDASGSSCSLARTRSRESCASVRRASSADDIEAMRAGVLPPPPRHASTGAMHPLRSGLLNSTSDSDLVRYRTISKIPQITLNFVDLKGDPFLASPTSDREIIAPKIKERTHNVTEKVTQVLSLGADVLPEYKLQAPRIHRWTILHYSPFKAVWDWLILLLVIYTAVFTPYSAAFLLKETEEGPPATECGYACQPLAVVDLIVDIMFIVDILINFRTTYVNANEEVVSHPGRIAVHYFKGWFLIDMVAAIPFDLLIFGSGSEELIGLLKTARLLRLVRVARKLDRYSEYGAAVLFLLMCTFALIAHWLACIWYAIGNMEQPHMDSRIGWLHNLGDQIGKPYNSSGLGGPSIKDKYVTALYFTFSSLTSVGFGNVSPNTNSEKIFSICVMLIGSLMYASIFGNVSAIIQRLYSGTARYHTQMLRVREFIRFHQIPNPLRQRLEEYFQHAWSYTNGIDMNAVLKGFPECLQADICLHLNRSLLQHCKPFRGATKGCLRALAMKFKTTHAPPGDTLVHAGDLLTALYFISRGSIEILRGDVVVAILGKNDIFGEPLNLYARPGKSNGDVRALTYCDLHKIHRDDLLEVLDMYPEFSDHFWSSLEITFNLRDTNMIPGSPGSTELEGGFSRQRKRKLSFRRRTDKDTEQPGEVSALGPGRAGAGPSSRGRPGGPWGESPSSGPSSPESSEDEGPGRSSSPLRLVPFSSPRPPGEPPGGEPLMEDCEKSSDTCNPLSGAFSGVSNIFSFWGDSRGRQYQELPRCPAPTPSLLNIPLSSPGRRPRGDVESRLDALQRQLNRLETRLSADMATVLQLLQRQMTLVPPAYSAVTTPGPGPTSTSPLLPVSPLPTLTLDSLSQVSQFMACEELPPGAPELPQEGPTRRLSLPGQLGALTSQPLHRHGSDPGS

On to `O=C(COc1ccc(Cl)c(F)c1)N[C@H]1CC[C@H](c2nnc(COC(F)(F)F)o2)NC1` [Example 61, 2-(4-chloro-3-fluorophenoxy)-N-[(3S,6R)-6-(5-[(trifluoromethoxy)methyl]-1,3,4-oxadiazol-2-yl}piperidin-3-yl]acetamide], for which the IC50 – broadly, the midpoint of a concentration-inhibition curve – (Table 24) lay in the range of 1 to 5 µM and the IC50 (Table 26) lay in the range of 1 to 5 µM.
On to `O=C(COc1ccc(Cl)c(F)c1)N[C@H]1CC[C@H](c2nnc([C@H]3C[C@@H](OC(F)(F)F)C3)o2)NC1` [Example 50, 2-(4-chloro-3-fluorophenoxy)-N-[(3S,6R)-6-{5-[(1s,3s)-3-(trifluoromethoxy)cyclobutyl]-1,3,4-oxadiazol-2-yl}piperidin-3-yl]acetamide], for which the IC50 is, setting by setting: (Table 24) 1 to 5 µM; (Table 26) > 5 µM.
